Assay results: patent US20080020077A1, “Association Of Vegetal Extracts Based On Gooseberries, Black Orchids And Black Tulips And Topical Composition Comprising The Association Of Said Vegetal Extracts” (priority 2004, published 2008)

Test system: collagen
Test: Collagen content of human fibroblasts (hydroxyproline by reverse-phase HPLC)
Assay type: cell-based
Conditions: positive reference, versus control
Procedure: For this study, the fibroblasts were cultured in the same way as in paragraph 1.4.1. After the incubation period, the fibroblasts were recovered by centrifugation. The pellets were digested with […] (1 mg/cell pellet) in […] acetic acid for 24 hours at 4° C. After centrifugation at 10 000 g, the collagens were precipitated with 1 M sodium chloride (NaCl), and the precipitate was resuspended and then dialyzed. The primary amino acids were derivatized with o-phthaldehyde (OPA) acid, thus eliminating their interference. Hydroxyproline and proline were then derivatized with NBD-Cl by coupling the amino groups to NBD-CL. The NBD-Hyp was separated and identified by reverse-phase HPLC. […] The mobile phase is pre-filtered and then degassed before use. • The solutions are prepared in the following way: […] The standard curve is prepared from a solution of hydroxyproline at 50 mg/l. Successive dilutions make it possible to obtain solutions ranging from 0.5 to 40 mg/l. The derivatization and the establishment of the standard curve are carried out using 10 μl of a standard solution at various concentrations, mixed with 10 μl of the buffer. After the addition of 5 μl of OPA and agitation, the tubes are kept at ambient temperature for 5 min and then 10 μl of the NBD-Cl solution are added. […] The tubes are then removed and the orange coloration makes it possible to verify the derivatization. […]

O=C1O[C@H]([C@@H](O)CO)C(O)=C1O [Vit C, vitamin C]
% incorporation: +61%
